Reference: PubChem BioAssay (NCI)
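Five compound concentrations were applied to cells in 96-well plates for 48 hours; endpoints were derived by simple linear interpolation of the resulting dose-response curve. TGI marks complete inhibition of growth.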

test system: SN12C renal; experiment: growth of human tumour cells (NCI), 48 h

Row | Compound | TGI [µM]
1 | Cc1ccc(N2C(=O)CS/C2=C(\C#N)c2nc3ccccc3[nH]2)cc1 | > 100
2 | Cn1c(O)c(C=Nc2ccccc2[N+](=O)[O-])c(=O)n(C)c1=O | > 100
3 | CN1CNc2nc(N)n(C)c(=O)c2C1 | > 10
4 | CCOc1ccc(/C(Cl)=C(\C=O)c2ccc(OC)c(OC)c2)cc1OCC | > 100
5 | COC(=O)C(C#CCCCCC#CC(NC(=O)OCc1ccccc1)(C(=O)OC)C(F)(F)F)(NC(=O)OCc1ccccc1)C(F)(F)F (stereo not given) | > 100
6 | N#C/C(c1nc2ccccc2[nH]1)=c1\s/c(=C/c2ccc(Cl)cc2)c(=O)n1-c1ccccc1 | > 100
7 | COC(=O)CC1NC(=O)[C@@H]1C(C)O (stereo not given in full) | > 100
8 | O=C1c2ccccc2OP(=O)(OCC(F)(F)F)OC1(C(F)(F)F)C(F)(F)F (stereo not given) | > 100
9 | COc1ccc(N=Cc2ccc(N(CCC#N)S(=O)(=O)c3ccccc3)cc2)cc1 | > 100
10 | CCOC(=O)/C=C/n1c2ccccc2c(=O)c2ccccc21 | > 100
11 | COc1cc(CO)c(CC(=O)NCCCc2ccccc2)cc1OC | > 100
12 | Nc1nc(SCc2ccc([N+](=O)[O-])cc2)nc2c1ncn2C1OC(CO)C(O)C1O (stereo not given) | > 100
13 | CC(C)C1=CC23CCC4C(C)(C(=O)O)CCCC4(C)C2CC1C1C(=O)N(c2ccccc2N2C(=O)C4C5CC6C7(C)CCCC(C)(C(=O)O)C7CCC6(C=C5C(C)C)C4C2=O)C(=O)C13 (stereo not given) | 24.8
14 | C=CCC(N(C)C(=O)[C@H](Cc1ccccc1)NC(=O)OCc1ccccc1)P(=O)(Oc1ccccc1)Oc1ccccc1 (stereo not given in full) | > 100

test system: SK-OV-3 ovarian; experiment: growth of human tumour cells (NCI), 48 h

Row | Compound | TGI [µM]
15 | Cn1c(O)c(C=Nc2ccccc2[N+](=O)[O-])c(=O)n(C)c1=O | > 100
16 | CN1CNc2nc(N)n(C)c(=O)c2C1 | > 10
17 | CCOc1ccc(/C(Cl)=C(\C=O)c2ccc(OC)c(OC)c2)cc1OCC | > 100
18 | COC(=O)C(C#CCCCCC#CC(NC(=O)OCc1ccccc1)(C(=O)OC)C(F)(F)F)(NC(=O)OCc1ccccc1)C(F)(F)F (stereo not given) | > 100
19 | N#C/C(c1nc2ccccc2[nH]1)=c1\s/c(=C/c2ccc(Cl)cc2)c(=O)n1-c1ccccc1 | > 100
20 | O=C1c2ccccc2OP(=O)(OCC(F)(F)F)OC1(C(F)(F)F)C(F)(F)F (stereo not given) | > 100
21 | COc1ccc(N=Cc2ccc(N(CCC#N)S(=O)(=O)c3ccccc3)cc2)cc1 | > 100
22 | C=CCC(N(C)C(=O)[C@H](Cc1ccccc1)NC(=O)OCc1ccccc1)P(=O)(Oc1ccccc1)Oc1ccccc1 (stereo not given in full) | > 100

test system: U251 CNS; experiment: growth of human tumour cells (NCI), 48 h

Row | Compound | TGI [µM]
23 | Cc1ccc(N2C(=O)CS/C2=C(\C#N)c2nc3ccccc3[nH]2)cc1 | > 100
24 | Cn1c(O)c(C=Nc2ccccc2[N+](=O)[O-])c(=O)n(C)c1=O | > 100
25 | CN1CNc2nc(N)n(C)c(=O)c2C1 | > 10
26 | CCOc1ccc(/C(Cl)=C(\C=O)c2ccc(OC)c(OC)c2)cc1OCC | 97.5
27 | COC(=O)C(C#CCCCCC#CC(NC(=O)OCc1ccccc1)(C(=O)OC)C(F)(F)F)(NC(=O)OCc1ccccc1)C(F)(F)F (stereo not given) | > 100
28 | N#C/C(c1nc2ccccc2[nH]1)=c1\s/c(=C/c2ccc(Cl)cc2)c(=O)n1-c1ccccc1 | > 100
29 | COC(=O)CC1NC(=O)[C@@H]1C(C)O (stereo not given in full) | > 100
30 | O=C1c2ccccc2OP(=O)(OCC(F)(F)F)OC1(C(F)(F)F)C(F)(F)F (stereo not given) | > 100
31 | COc1ccc(N=Cc2ccc(N(CCC#N)S(=O)(=O)c3ccccc3)cc2)cc1 | > 100
32 | CCOC(=O)/C=C/n1c2ccccc2c(=O)c2ccccc21 | > 100
33 | COc1cc(CO)c(CC(=O)NCCCc2ccccc2)cc1OC | > 100
34 | Nc1nc(SCc2ccc([N+](=O)[O-])cc2)nc2c1ncn2C1OC(CO)C(O)C1O (stereo not given) | > 100
35 | CC(C)C1=CC23CCC4C(C)(C(=O)O)CCCC4(C)C2CC1C1C(=O)N(c2ccccc2N2C(=O)C4C5CC6C7(C)CCCC(C)(C(=O)O)C7CCC6(C=C5C(C)C)C4C2=O)C(=O)C13 (stereo not given) | 12
36 | C=CCC(N(C)C(=O)[C@H](Cc1ccccc1)NC(=O)OCc1ccccc1)P(=O)(Oc1ccccc1)Oc1ccccc1 (stereo not given in full) | > 100

test system: A498 renal; experiment: growth of human tumour cells (NCI), 48 h

Row | Compound | TGI [µM]
37 | Cc1ccc(N2C(=O)CS/C2=C(\C#N)c2nc3ccccc3[nH]2)cc1 | > 100
38 | Cn1c(O)c(C=Nc2ccccc2[N+](=O)[O-])c(=O)n(C)c1=O | > 100
39 | COC(=O)C(C#CCCCCC#CC(NC(=O)OCc1ccccc1)(C(=O)OC)C(F)(F)F)(NC(=O)OCc1ccccc1)C(F)(F)F (stereo not given) | > 100
40 | N#C/C(c1nc2ccccc2[nH]1)=c1\s/c(=C/c2ccc(Cl)cc2)c(=O)n1-c1ccccc1 | > 100
41 | COC(=O)CC1NC(=O)[C@@H]1C(C)O (stereo not given in full) | > 100
42 | O=C1c2ccccc2OP(=O)(OCC(F)(F)F)OC1(C(F)(F)F)C(F)(F)F (stereo not given) | > 100
43 | COc1ccc(N=Cc2ccc(N(CCC#N)S(=O)(=O)c3ccccc3)cc2)cc1 | > 100
44 | CCOC(=O)/C=C/n1c2ccccc2c(=O)c2ccccc21 | > 100
45 | COc1cc(CO)c(CC(=O)NCCCc2ccccc2)cc1OC | > 100
46 | Nc1nc(SCc2ccc([N+](=O)[O-])cc2)nc2c1ncn2C1OC(CO)C(O)C1O (stereo not given) | > 100
47 | CC(C)C1=CC23CCC4C(C)(C(=O)O)CCCC4(C)C2CC1C1C(=O)N(c2ccccc2N2C(=O)C4C5CC6C7(C)CCCC(C)(C(=O)O)C7CCC6(C=C5C(C)C)C4C2=O)C(=O)C13 (stereo not given) | 13.6

test system: COLO 205 colon; experiment: growth of human tumour cells (NCI), 48 h

Row | Compound | TGI [µM]
48 | Cc1ccc(N2C(=O)CS/C2=C(\C#N)c2nc3ccccc3[nH]2)cc1 | > 100
49 | Cn1c(O)c(C=Nc2ccccc2[N+](=O)[O-])c(=O)n(C)c1=O | > 100
50 | CCOc1ccc(/C(Cl)=C(\C=O)c2ccc(OC)c(OC)c2)cc1OCC | > 100
51 | COC(=O)C(C#CCCCCC#CC(NC(=O)OCc1ccccc1)(C(=O)OC)C(F)(F)F)(NC(=O)OCc1ccccc1)C(F)(F)F (stereo not given) | > 100
52 | N#C/C(c1nc2ccccc2[nH]1)=c1\s/c(=C/c2ccc(Cl)cc2)c(=O)n1-c1ccccc1 | > 100
53 | COC(=O)CC1NC(=O)[C@@H]1C(C)O (stereo not given in full) | > 100
54 | O=C1c2ccccc2OP(=O)(OCC(F)(F)F)OC1(C(F)(F)F)C(F)(F)F (stereo not given) | > 100
55 | COc1ccc(N=Cc2ccc(N(CCC#N)S(=O)(=O)c3ccccc3)cc2)cc1 | > 100
56 | CCOC(=O)/C=C/n1c2ccccc2c(=O)c2ccccc21 | > 100
57 | COc1cc(CO)c(CC(=O)NCCCc2ccccc2)cc1OC | > 100
58 | Nc1nc(SCc2ccc([N+](=O)[O-])cc2)nc2c1ncn2C1OC(CO)C(O)C1O (stereo not given) | > 100
59 | CC(C)C1=CC23CCC4C(C)(C(=O)O)CCCC4(C)C2CC1C1C(=O)N(c2ccccc2N2C(=O)C4C5CC6C7(C)CCCC(C)(C(=O)O)C7CCC6(C=C5C(C)C)C4C2=O)C(=O)C13 (stereo not given) | 17.8
60 | C=CCC(N(C)C(=O)[C@H](Cc1ccccc1)NC(=O)OCc1ccccc1)P(=O)(Oc1ccccc1)Oc1ccccc1 (stereo not given in full) | > 100

test system: NCI/ADR-RES ovarian; experiment: growth of human tumour cells (NCI), 48 h

Row | Compound | TGI [µM]
61 | Cn1c(O)c(C=Nc2ccccc2[N+](=O)[O-])c(=O)n(C)c1=O | > 100
62 | CN1CNc2nc(N)n(C)c(=O)c2C1 | > 10
63 | COc1cc(CO)c(CC(=O)NCCCc2ccccc2)cc1OC | > 100

test system: LOX IMVI melanoma; experiment: growth of human tumour cells (NCI), 48 h

Row | Compound | TGI [µM]
64 | Cc1ccc(N2C(=O)CS/C2=C(\C#N)c2nc3ccccc3[nH]2)cc1 | > 100
65 | Cn1c(O)c(C=Nc2ccccc2[N+](=O)[O-])c(=O)n(C)c1=O | > 100
66 | CCOc1ccc(/C(Cl)=C(\C=O)c2ccc(OC)c(OC)c2)cc1OCC | > 100
67 | COC(=O)C(C#CCCCCC#CC(NC(=O)OCc1ccccc1)(C(=O)OC)C(F)(F)F)(NC(=O)OCc1ccccc1)C(F)(F)F (stereo not given) | > 100
68 | N#C/C(c1nc2ccccc2[nH]1)=c1\s/c(=C/c2ccc(Cl)cc2)c(=O)n1-c1ccccc1 | > 100
69 | COC(=O)CC1NC(=O)[C@@H]1C(C)O (stereo not given in full) | > 100
70 | O=C1c2ccccc2OP(=O)(OCC(F)(F)F)OC1(C(F)(F)F)C(F)(F)F (stereo not given) | > 100
71 | COc1ccc(N=Cc2ccc(N(CCC#N)S(=O)(=O)c3ccccc3)cc2)cc1 | > 100
72 | CCOC(=O)/C=C/n1c2ccccc2c(=O)c2ccccc21 | > 100
73 | COc1cc(CO)c(CC(=O)NCCCc2ccccc2)cc1OC | > 100
74 | Nc1nc(SCc2ccc([N+](=O)[O-])cc2)nc2c1ncn2C1OC(CO)C(O)C1O (stereo not given) | > 100
75 | C=CCC(N(C)C(=O)[C@H](Cc1ccccc1)NC(=O)OCc1ccccc1)P(=O)(Oc1ccccc1)Oc1ccccc1 (stereo not given in full) | > 100

test system: UO-31 renal; experiment: growth of human tumour cells (NCI), 48 h

Row | Compound | TGI [µM]
76 | Cc1ccc(N2C(=O)CS/C2=C(\C#N)c2nc3ccccc3[nH]2)cc1 | > 100
77 | Cn1c(O)c(C=Nc2ccccc2[N+](=O)[O-])c(=O)n(C)c1=O | > 100
78 | CN1CNc2nc(N)n(C)c(=O)c2C1 | > 10
79 | CCOc1ccc(/C(Cl)=C(\C=O)c2ccc(OC)c(OC)c2)cc1OCC | > 100
80 | COC(=O)C(C#CCCCCC#CC(NC(=O)OCc1ccccc1)(C(=O)OC)C(F)(F)F)(NC(=O)OCc1ccccc1)C(F)(F)F (stereo not given) | > 100
81 | N#C/C(c1nc2ccccc2[nH]1)=c1\s/c(=C/c2ccc(Cl)cc2)c(=O)n1-c1ccccc1 | > 100
82 | COC(=O)CC1NC(=O)[C@@H]1C(C)O (stereo not given in full) | > 100
83 | O=C1c2ccccc2OP(=O)(OCC(F)(F)F)OC1(C(F)(F)F)C(F)(F)F (stereo not given) | > 100
84 | COc1ccc(N=Cc2ccc(N(CCC#N)S(=O)(=O)c3ccccc3)cc2)cc1 | > 100
85 | CCOC(=O)/C=C/n1c2ccccc2c(=O)c2ccccc21 | > 100
